We go through four molecules from PMC7736581, “Activation of the IRE1 RNase through remodeling of the kinase front pocket by ATP-competitive ligands” (Nature Communications, 2020).

Where two headings read alike, the source gives them in different places.

What all share (assay): biochemical
In assay [1] the target is Lyn (Homo sapiens, UniProt P07948). More on the design: Invitrogen kinase panel: Z'Lyte activity (ATP at Km) or LanthaScreen competitive ATP-site binding, percent inhibition.
The target of assay [2] is T1, PERK (Homo sapiens, UniProt Q9NZJ5).
T1 construct: gene EIF2AK3
T1 sequence (Q9NZJ5 1-1116): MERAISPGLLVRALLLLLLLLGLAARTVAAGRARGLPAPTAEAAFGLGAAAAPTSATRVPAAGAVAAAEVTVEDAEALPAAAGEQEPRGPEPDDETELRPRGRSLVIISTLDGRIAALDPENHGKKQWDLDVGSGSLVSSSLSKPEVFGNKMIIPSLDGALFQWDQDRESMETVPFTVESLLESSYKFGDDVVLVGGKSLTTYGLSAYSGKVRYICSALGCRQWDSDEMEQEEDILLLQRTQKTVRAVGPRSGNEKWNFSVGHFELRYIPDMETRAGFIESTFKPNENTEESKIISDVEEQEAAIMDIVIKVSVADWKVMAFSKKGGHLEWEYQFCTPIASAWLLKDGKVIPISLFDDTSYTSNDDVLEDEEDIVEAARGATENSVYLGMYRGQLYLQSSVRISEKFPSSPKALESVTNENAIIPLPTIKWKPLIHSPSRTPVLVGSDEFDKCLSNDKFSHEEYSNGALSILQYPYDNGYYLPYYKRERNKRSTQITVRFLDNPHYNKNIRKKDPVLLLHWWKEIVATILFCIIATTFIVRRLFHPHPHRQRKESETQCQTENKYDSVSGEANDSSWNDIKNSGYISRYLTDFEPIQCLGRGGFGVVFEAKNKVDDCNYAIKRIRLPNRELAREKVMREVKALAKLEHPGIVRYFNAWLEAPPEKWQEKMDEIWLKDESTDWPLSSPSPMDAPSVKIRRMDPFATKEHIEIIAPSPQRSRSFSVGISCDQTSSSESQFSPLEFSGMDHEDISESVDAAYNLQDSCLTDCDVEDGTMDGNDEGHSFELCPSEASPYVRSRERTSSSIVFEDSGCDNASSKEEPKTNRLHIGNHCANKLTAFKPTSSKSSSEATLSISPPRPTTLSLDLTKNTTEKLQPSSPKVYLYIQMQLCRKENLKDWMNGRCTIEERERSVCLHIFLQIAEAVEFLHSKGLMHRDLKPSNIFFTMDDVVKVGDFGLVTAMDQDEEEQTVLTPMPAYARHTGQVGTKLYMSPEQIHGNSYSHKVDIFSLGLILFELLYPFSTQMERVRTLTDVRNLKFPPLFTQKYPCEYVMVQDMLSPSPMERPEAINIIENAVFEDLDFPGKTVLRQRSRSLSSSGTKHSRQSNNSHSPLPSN
More on the design: 33P incorporation kinase assay (Reaction Biology), myelin basic protein substrate. As to conditions: 10 uM ATP. From the text:
We set out to identify allosteric activators of IRE1 RNase by screening internal compound libraries for binding to the kinase, using a published ATP-competitive TR-FRET assay. We then tested kinase binders to assess RNase modulation in an IRE1-specific kinetic RNA cleavage assay that uses the cytoplasmic construct IRE1-LKR (Q470-L977) (Supplementary Fig. 1a). […] Next, we tested these compounds in KMS-11 multiple myeloma cells, known to express functional IRE1 and strongly depend on the IRE1 pathway due to hyper-production of immunoglobulins in the ER[31]. We measured mRNA levels of XBP1s and the well-established RIDD target DGAT2[22] (Fig. 1c and Supplementary Fig. 1c, respectively) using a branched DNA (bDNA) assay. […] Importantly, neither G-9807 nor G-1749 inhibit PERK (Supplementary Table 1).

Assay [3] has as its target Inositol-Requiring Enzyme 1 (IRE1) (Homo sapiens, UniProt O75460). Details: gene ERN1; IRE1 cytoplasmic kinase-RNase construct; kinetic fluorescence RNA cleavage (FAM/BHQ XBP1 stem-loop) by IRE1 LKR Q470-L977. The method, then:
A 5′-Carboxyfluorescein (FAM)-and 3′-Black Hole Quencher (BHQ)-labeled single stem-loop mini-substrate containing XBP1 sequence (sequence reported in Supplementary Table 4) was used as substrate for cleavage by IRE1 LKR (Q470-L977) or IRE1 KR (G547-L977) in 20 mM HEPES pH 7.5, 50 mM potassium acetate, 1 mM magnesium acetate, 1 mM dithiothreitol, 0.05% v/v TritonX-100. Concentrations were as follows: 8 nM IRE1 LKR and 200 nM RNA substrate; 22 nM IRE1 KR-0P and 200 nM RNA substrate; 2 nM IRE1 KR 3P and 500 nM RNA substrate. RNA cleavage was measured kinetically over an hour at room temperature as an increase in fluorescence. The final reaction was carried out in 20 µL in 384-well plates. Samples were run in duplicate. To investigate whether this peculiar conformation had any role in the mechanism of activation of G-1749, we evaluated different tails to substitute the ethyl carbamate on the naphthyl moiety (Fig. 3, Supplementary Table 2). […] This is likely due to clashes with residues lining the front pocket, which in turn would force the tails to occupy the back pocket and break the salt bridge, thereby causing RNase inhibition. […] Experiments in KMS-11 cells (Fig. 3b, c, right panels) confirmed the effect of these tail modifications on IRE1 RNase activation. […] The chemical substituents tolerated by the front pocket seem to be very limited: even a minor substitution of the carbamate oxygen atom to a larger [compound left out], from ethyl carbamate to propyl amide (compound 6), or from methyl carbamate to methyl or ethyl amide (compound 4 or 5, respectively), or increasing the tail length by one atom, from ethyl to propyl carbamate (compound 11), is enough to impart a switch from activation to inhibition (Fig. 3b, c). […] RNA cleavage was measured by a kinetic fluorescence assay using an XBP1-like RNA hairpin substrate and IRE1 LKR construct (Q470-L977). Background from the no-protein control was subtracted from signal before calculating fold change. Source data are provided as a Source Data file. Data are presented as the mean for measurements from two independent experiments (n = 2). c RNA levels for IRE1 RNase product XBP1s measured by bDNA assay of lysates from KMS-11 cells treated with compounds for 4 h. Background from the no-RNA control was subtracted from signal before calculating fold change. Source data are provided as a Source Data file. Data are presented as the mean for measurements from two independent experiments (n = 2). d, e Analytical Ultracentrifugation sedimentation velocity (SV-AUC) experiments for (d), IRE1 LKR (Q470-L977) unphosphorylated and autophosphorylated and (e), IRE1 LKR unphosphorylated in the presence of slight excess G-9807 and G-1749. Calculated sedimentation coefficients for IRE1 monomer (3.1 svedbergs) and dimer (4.6 svedbergs) are highlighted by dotted lines. Source data are provided as a Source Data file.

[4] abbreviates: RNase activation, read-out: EC50 (RNase biochemical assay), activators.

Chain of Inositol-Requiring Enzyme 1 (IRE1) (O75460 547-977): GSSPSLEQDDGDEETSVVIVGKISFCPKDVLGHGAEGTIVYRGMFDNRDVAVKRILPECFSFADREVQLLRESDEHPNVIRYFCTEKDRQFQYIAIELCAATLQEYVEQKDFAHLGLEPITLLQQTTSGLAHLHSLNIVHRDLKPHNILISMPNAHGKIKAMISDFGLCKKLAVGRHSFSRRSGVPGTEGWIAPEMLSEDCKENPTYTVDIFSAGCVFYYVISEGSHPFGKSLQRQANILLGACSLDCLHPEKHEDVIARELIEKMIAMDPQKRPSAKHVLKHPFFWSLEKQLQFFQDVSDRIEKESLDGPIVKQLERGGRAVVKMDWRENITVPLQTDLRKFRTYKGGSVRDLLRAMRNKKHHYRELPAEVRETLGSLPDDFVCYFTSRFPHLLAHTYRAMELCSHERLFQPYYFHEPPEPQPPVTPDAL
Chain of Lyn (P07948 whole entry): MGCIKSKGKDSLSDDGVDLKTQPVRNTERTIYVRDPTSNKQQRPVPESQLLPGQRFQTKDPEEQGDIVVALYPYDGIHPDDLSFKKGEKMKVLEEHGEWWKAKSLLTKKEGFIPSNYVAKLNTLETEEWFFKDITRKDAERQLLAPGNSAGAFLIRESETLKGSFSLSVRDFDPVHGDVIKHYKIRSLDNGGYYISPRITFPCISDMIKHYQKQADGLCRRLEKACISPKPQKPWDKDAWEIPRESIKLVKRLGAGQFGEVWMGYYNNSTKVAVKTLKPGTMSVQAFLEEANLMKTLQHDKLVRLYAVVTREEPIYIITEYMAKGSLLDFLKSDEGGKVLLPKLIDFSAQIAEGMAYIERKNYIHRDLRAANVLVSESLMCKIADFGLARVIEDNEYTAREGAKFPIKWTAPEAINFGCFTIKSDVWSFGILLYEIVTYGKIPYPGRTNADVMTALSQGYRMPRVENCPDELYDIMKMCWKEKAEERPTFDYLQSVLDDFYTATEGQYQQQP

A word on the inhibition: it is how much of the control response was suppressed. Lower therefore signals a weak effect. The term EC50 denotes the concentration at which the effect is half-maximal. Take `O=c1cc(-c2n[nH]c3ncc(-c4c(F)cccc4F)cc23)nc(N2CCC(O)CC2)[nH]1` [G-9807]: the inhibition at 1 µM in assay [1] worked out at 87.1%; in assay [2] it was 4.5%. Also, the EC50 in assay [3] (setting [4]) came out at 18 ± 3 nM.
Regarding `Cc1ccc2c(NS(=O)(=O)c3ccccc3Cl)cccc2c1Oc1ncccc1-c1ccnc(N[C@H]2CCCNC2)n1` [AMG-18], the inhibition at 1 µM in assay [2] worked out at 5.4%. Further, the EC50 in assay [3] (RNase inhibition, read-out: EC50 (RNase biochemical assay), inhibitors) turned out to be 17 ± 4 nM.
`CC#CC(=O)Nc1cccc2c(Oc3ncccc3-c3ccnc(N[C@H]4CCCNC4)n3)c(C)ccc12` [G-7658] came in with an inhibition at 1 µM in assay [1] of 13%. Moreover, the EC50 in assay [3] (setting [4]) is 7 ± 1 nM.
Regarding `CCOC(=O)Nc1cccc2c(Oc3ncccc3-c3ccnc(N[C@H]4CCCNC4)n3)c(C)ccc12` [G-1749], the inhibition at 1 µM in assay [1] came out at 6.5%; in assay [2], 9.9%. In assay [3] (setting [4]), the EC50 came out at 9 ± 3 nM.
